Where two headings read alike, the source gives them in different places.
Assay: Plasma pharmacokinetics (LC-MS/MS, noncompartmental) in phase I patients
Format: in vivo, human
Details: for Cmax / AUC: human, plasma, oral; for AUC: read-out: AUC0−τ
Procedure: Pharmacokinetic studies were performed in all patients. Ethylenediaminetetraacetic acid blood samples were collected during the first cycle: on day 1 before the first drug intake and 0.5, 1, 2, 4, 6, 8, 12 and 24 h after administration; on days 3, 8 and 15 before the morning drug intake and 2 h after administration; and on day 22 before the morning drug intake and 0.5, 1, 2, 4, 6, 8, 12 and 24 h after administration. Samples were immediately put on ice and centrifuged at 4°C for 10 min at 1500 g. The resulting plasma was stored at −70°C until analysis. Plasma samples of the last three patients were not measured as the study was stopped before analysis.
The total plasma concentrations of AZD3409 ester and AZD3409 acid were determined by LC–MS/MS. The plasma samples were treated with dithiothreitol to reduce any disulphide bonds. The sample pretreatment was based on protein precipitation with acidic acetonitrile. Isotopically labelled analogues were used as internal standards. The method has been validated regarding selectivity, accuracy, precision and stability in human plasma. The lower limit of quantification was 3 ng ml^−1 for both AZD3409 ester and AZD3409 acid, with a 50 μl sample volume.
The following PK parameters were determined, either by direct observation or by noncompartmental analysis (WinNonlin, version 5.0.1; Pharsight, Mountain View, CA, USA): the minimal plasma concentration (Cmin), the maximal plasma concentration (Cmax), the area under the curve within one dosing interval (AUC0−τ) and total plasma clearance (Cl/F). Correlations between dose and Cmax levels and between dose and AUC0−τ were analysed on day 1 using the nonparametric Spearman's ρ (Rs) correlation test. Accumulation was tested with an exact Wilcoxon's rank paired signed test. Linear measures mixed effects models were constructed with SAS (SAS Institute Inc., Cary, NC, USA) to determine the effect of the dose on the trough plasma concentrations of both metabolites. The daily dose, time (days), gender and age were considered to be a fixed effect, and the patient variable was considered to be a random effect. Owing to the distribution of the trough plasma concentration log transformation was applied.

[1] = 500 mg once daily, day 1, dose 500 (once daily), N=3, mean (SD)
[2] = 500 mg once daily, day 22, dose 500 (once daily), N=2, absolute values
[3] = 750 mg b.i.d., day 1, dose 750 b.i.d., N=8, mean (SD)
[4] = 750 mg b.i.d., day 22, dose 750 b.i.d., N=3, mean (SD)
[5] = 1000 mg once daily, day 1, dose 1000 (once daily), N=3, mean (SD)
[6] = 1000 mg once daily, day 22, dose 1000 (once daily), N=3, mean (SD)
[7] = 1250 mg b.i.d., day 1, dose 1250 b.i.d., N=6, mean (SD)
[8] = 1250 mg b.i.d., day 22, dose 1250 b.i.d., N=4, mean (SD)
[9] = 1500 mg b.i.d., day 1, dose 1500 b.i.d., N=2, absolute values
[10] = 1750 mg b.i.d., day 1, dose 1750 b.i.d., N=4, mean (SD)
[11] = 1750 mg b.i.d., day 22, dose 1750 b.i.d., N=1

With `CSCC[C@H](NC(=O)c1cc(NC[C@@H]2C[C@H](S)CN2)ccc1CCc1ccc(F)cc1)C(=O)OC(C)C` [AZD3409 ester] the AUCester/AUCacid ratio (day 1) was 2.5, the “Spearman correlation (Rs) between dose and AUC” value (day 1) was 0.52 and the “Spearman correlation (Rs) between dose and Cmax” value (day 1) was 0.43. For the same compound, the AUCester/AUCacid ratio (day 22) was 2.0, the Cl/F (day 22, dose 500 (once daily), N=2, absolute values) was “[263–308] l h^−1” and the Cl/F (day 22, dose 750 b.i.d., N=3, mean (SD)) was 309 (151) l h^−1. For the same compound, the Cl/F (day 22, dose 1000 (once daily), N=3, mean (SD)) was 319 (172) l h^−1, the Cl/F (day 22, dose 1250 b.i.d., N=4, mean (SD)) was 474 (231) l h^−1 and the Cl/F (day 22, dose 1750 b.i.d., N=1) was 1145 L/h. The “Ratio AUC0−τ day 22/day 1” value (dose 500 (once daily), N=2, absolute values) was “[1.42–8.31]”, the “Ratio AUC0−τ day 22/day 1” value (dose 750 b.i.d., N=3, mean (SD)) was 7.03 (8.46) and the “Ratio AUC0−τ day 22/day 1” value (dose 1000 (once daily), N=3, mean (SD)) was 1.54 (0.86). The “Ratio AUC0−τ day 22/day 1” value (dose 1250 b.i.d., N=4, mean (SD)) was 1.28 (0.70), the “Ratio AUC0−τ day 22/day 1” value (dose 1750 b.i.d., N=1) was 0.97 and the Cmax [1] was 82.1 ng/mL. It also gave an AUC [1] of 395 ng·h/mL, a Cmax [2] of 229 to 257 ng/mL and an AUC [2] of 1230 to 1460 ng·h/mL. It also gave a Cmax [3] of 245 ng/mL, an AUC [3] of 1070 ng·h/mL and a Cmax [4] of 298 ng/mL. The AUC [4] was 1720 ng·h/mL, the Cmax [5] was 318 ng/mL and the AUC [5] was 1540 ng·h/mL. The Cmax [6] was 296 ng/mL, the AUC [6] was 1930 ng·h/mL and the Cmax [7] was 338 ng/mL. The AUC [7] was 1780 ng·h/mL, the Cmax [8] was 366 ng/mL and the AUC [8] was 2120 ng·h/mL. It also gave a Cmax [9] of 227 to 315 ng/mL, an AUC [9] of 1460 to 1630 ng·h/mL and a Cmax [10] of 362 ng/mL. For the same compound, the AUC [10] was 1690 ng·h/mL, the Cmax [11] was 445 ng/mL and the AUC [11] was 1100 ng·h/mL.
